In PubChem BioAssay (NCI):
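Protocol summary: plate cells (96-well), add compound at 5 concentrations, incubate 48 h, interpolate endpoints linearly. GI50 is the concentration that inhibits growth by half. Definition used: TGI = concentration required for complete inhibition of growth.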

Columns and labels:
Experiment in all cases: growth of human tumour cells (NCI), 48 h
SNB-19 CNS = test system: SNB-19 CNS
LOX IMVI melanoma = test system: LOX IMVI melanoma
HCC-2998 colon = test system: HCC-2998 colon
OVCAR-3 ovarian = test system: OVCAR-3 ovarian
NCI-H226 lung = test system: NCI-H226 lung
RPMI-8226 leukemia = test system: RPMI-8226 leukemia
HOP-62 NSCLC = test system: HOP-62 NSCLC
A549 NSCLC = test system: A549 NSCLC
UACC-257 melanoma = test system: UACC-257 melanoma
T-47D breast = test system: T-47D breast

| SMILES | GI50 (SNB-19 CNS) [µM] | TGI (SNB-19 CNS) [µM] | GI50 (LOX IMVI melanoma) [µM] | TGI (LOX IMVI melanoma) [µM] | GI50 (HCC-2998 colon) [µM] | TGI (HCC-2998 colon) [µM] | GI50 (OVCAR-3 ovarian) [µM] | TGI (OVCAR-3 ovarian) [µM] | GI50 (NCI-H226 lung) [µM] | TGI (NCI-H226 lung) [µM] | GI50 (RPMI-8226 leukemia) [µM] | TGI (RPMI-8226 leukemia) [µM] | GI50 (HOP-62 NSCLC) [µM] | TGI (HOP-62 NSCLC) [µM] | GI50 (A549 NSCLC) [µM] | TGI (A549 NSCLC) [µM] | GI50 (UACC-257 melanoma) [µM] | TGI (UACC-257 melanoma) [µM] | GI50 (T-47D breast) [µM] | TGI (T-47D breast) [µM] |
| --- | --- | --- | --- | --- | --- | --- | --- | --- | --- | --- | --- | --- | --- | --- | --- | --- | --- | --- | --- | --- |
| C[C@H]1[C@H](C)CC[C@]2(C(=O)O)CC[C@]3(C)C(=CC[C@@H]4[C@@]5(C)CC[C@H](OC(=O)/C=C\c6ccc(O)cc6)C(C)(C)[C@@H]5CC[C@]43C)[C@H]12 | 10.5 | 31.1 | 3.86 | 15.9 | 2.92 | 14.1 | 3.05 | 21.2 | 4.55 | 26.3 | 1.8 | 10.3 | 2.26 | 12.8 | 2.02 | > 100 | 1.46 | 8.49 | – | – |
| CCOCC[P+](c1ccccc1)(c1ccccc1)c1ccccc1 | 21.3 | > 100 | 15.3 | 42.3 | – | – | 19.3 | > 100 | 17.8 | > 100 | 4.55 | 40.4 | 29.7 | > 100 | 16.4 | 87.8 | 6.86 | 49.6 | 4.21 | > 100 |
| COc1ccc2c(c1)N(CCC1CCCCN1C)c1ccccc1S2 (centres undefined) | – | 28.9 | – | 25.9 | – | – | – | 31.4 | – | 47.8 | – | 29.5 | – | 31.2 | – | 27.8 | – | 17.3 | – | 26.3 |
| O=C(Nc1ncc(Cc2ccc(Cl)cc2)s1)c1ccc2c(c1)OCCO2 | 0.08 | > 92.4 | 0.0742 | > 100 | 0.223 | 20.3 | 0.0335 | 0.398 | 0.358 | – | 0.0526 | > 100 | 0.0948 | > 41.6 | 0.0696 | > 100 | 5.8 | > 100 | – | – |
| CC1=C(C(=O)Nc2ccc(Cl)c(Cl)c2)C(c2cccc(O)c2)NC(=S)N1 (centres undefined) | 11.4 | 30.3 | 7.09 | 13.8 | – | – | 5.69 | 12.5 | 12 | 30.8 | 10.1 | 38.1 | 17.3 | 31.2 | – | – | 12.5 | > 50 | – | – |
| C/C(CC(=O)Nc1ccc([N+](=O)[O-])cc1)=N/N=C(N)N | – | – | – | > 100 | – | > 100 | – | > 100 | – | > 100 | – | – | – | > 100 | – | > 100 | – | > 100 | – | – |
| Cc1cc2c(=O)cc(-c3ccc(C(=O)O)cc3)oc2c(C(=O)O)c1C | – | > 100 | – | > 100 | – | > 100 | – | > 100 | – | > 100 | – | > 100 | – | > 100 | – | > 100 | – | > 100 | – | – |
| COc1ccc(OC)c2c3c(ncc12)-c1cc2c(cc1C3)OCO2 | > 100 | > 100 | 0.104 | 1.85 | > 100 | > 100 | 26.9 | > 100 | – | – | > 100 | > 100 | – | 0.0603 | > 100 | > 100 | 38.5 | > 100 | > 100 | > 100 |
| COc1ccc2c(c1)CC[C@@H]1[C@@H]2CC[C@]2(C)c3c(cc(C(=O)c4ccccc4)c4sccc34)C[C@@H]12 | > 100 | > 100 | > 100 | > 100 | > 100 | > 100 | > 100 | > 100 | > 100 | > 100 | > 100 | > 100 | > 100 | > 100 | > 100 | > 100 | > 100 | > 100 | – | – |
| O=C(CCc1cc(-c2ccco2)n(-c2ccc([N+](=O)[O-])cc2[N+](=O)[O-])n1)Nc1ccccc1 | – | > 100 | – | – | – | > 100 | – | – | – | > 100 | – | > 100 | – | > 100 | – | > 100 | – | > 100 | – | – |
| Cc1ccc(C2CC(c3cccc(Nc4ccncc4)c3)=NN2c2ccc(Cl)cc2)cc1 (centres undefined) | – | – | 1.62 | 2.97 | 1.69 | 3.14 | 1.69 | 3.06 | 1.87 | 3.76 | – | – | – | – | 1.73 | 3.29 | – | – | – | – |
| O=[N+]([O-])c1ccc(C2N3CCCCC3[C@@H]3c4[nH]c5ccccc5c4CCN23)cc1 (some centres undefined) | – | 67.1 | – | – | – | – | – | 38.6 | – | – | – | > 100 | – | 47.9 | – | > 100 | – | 41.2 | – | – |
| NC(CCCNCc1ccccc1O)C(=O)O (centres undefined) | – | > 100 | – | > 100 | – | – | – | > 100 | – | > 100 | – | > 100 | – | > 100 | – | > 100 | – | > 100 | – | – |
| C#Cc1ccc(-n2c(/C=C/c3ccc4ccccc4n3)nc3ncccc3c2=O)cc1 | – | – | 0.169 | 0.657 | 0.64 | 1.79 | 0.317 | 0.905 | 0.408 | 1.37 | – | – | 0.85 | 2.36 | 0.353 | 1.83 | 0.436 | 1.92 | 0.366 | 1.28 |
| COC(=O)c1cc(O)ccc1NC(=O)c1ccc(O)cc1 | – | > 100 | – | > 100 | – | > 100 | – | > 100 | – | > 100 | – | > 100 | – | > 100 | – | > 100 | – | > 100 | – | – |
| C/C(CN1C(=O)c2ccccc2C1=O)=N\NS(C)(=O)=O | – | > 100 | – | – | – | > 100 | – | > 100 | – | > 100 | – | > 100 | – | > 100 | – | > 100 | – | > 100 | – | – |
| O=C(/C=C/c1ccc2c(c1)OCO2)c1ccccc(=O)c1O | – | 51.8 | – | > 100 | – | – | – | > 100 | – | > 100 | – | > 100 | – | > 100 | – | – | – | 53.1 | – | 64.6 |
